“Also recorded” adds a separate entry of the source.
B1: KDM4A SNP-A482: KDM4A germline variant E482A (protein)
chain: MASESETLNPSARIMTFYPTMEEFRNFSRYIAYIESQGAHRAGLAKVVPPKEWKPRASYDDIDDLVIPAPIQQLVTGQSGLFTQYNIQKKAMTVREFRKIANSDKYCTPRYSEFEELERKYWKNLTFNPPIYGADVNGTLYEKHVDEWNIGRLRTILDLVEKESGITIEGVNTPYLYFGMWKTSFAWHTEDMDLYSINYLHFGEPKSWYSVPPEHGKRLERLAKGFFPGSAQSCEAFLRHKMTLISPLMLKKYGIPFDKVTQEAGEFMITFPYGYHAGFNHGFNCAESTNFATRRWIEYGKQAVLCSCRKDMVKISMDVFVRKFQPERYKLWKAGKDNTVIDHTLPTPEAAEFLKESELPPRAGNEEECPEEDMEGVEDGEEGDLKTSLAKHRIGTKRHRVCLEIPQEVSQSELFPKEDLSSEQYEMTECPAALAPVRPTHSSVRQVEDGLTFPDYSDSTEVKFEELKNVKLEEEDEEEEQAAAALDLSVNPASVGGRLVFSGSKKKSSSSLGSGSSRDSISSDSETSEPLSCRAQGQTGVLTVHSYAKGDGRVTVGEPCTRKKGSAARSFSERELAEVADEYMFSLEENKKSKGRRQPLSKLPRHHPLVLQECVSDDETSEQLTPEEEAEETEAWAKPLSQLWQNRPPNFEAEKEFNETMAQQAPHCAVCMIFQTYHQVEFGGFNQNCGNASDLAPQKQRTKPLIPEMCFTSTGCSTDINLSTPYLEEDGTSILVSCKKCSVRVHASCYGVPPAKASEDWMCSRCSANALEEDCCLCSLRGGALQRANDDRWVHVSCAVAILEARFVNIAERSPVDVSKIPLPRFKLKCIFCKKRRKRTAGCCVQCSHGRCPTAFHVSCAQAAGVMMQPDDWPFVVFITCFRHKIPNLERAKGALQSITAGQKVISKHKNGRFYQCEVVRLTTETFYEVNFDDGSFSDNLYPEDIVSQDCLQFGPPAEGEVVQVRWTDGQVYGAKFVASHPIQMYQVEFEDGSQLVVKRDDVYTLDEELPKRVKSRLSVASDMRFNEIFTEKEVKQEKKRQRVINSRYREDYIEPALYRAIME
modifications: left off: large carriers; small tags and cut ends
notes: KDM4A germline variant E482A

Tests used:
KDM4A = KDM4A protein levels by western blot; format: cell-based, human; settings: RPE cells; 1% O2
Procedure: Western blot analyses were performed according to (Black et al., 2010).
Western blots were performed as in (Black et al., 2010). Briefly, adherent cells were either scraped directly into PBS, or washed with PBS, trypsinized and collected by centrifuging at 2,000 RPM for 5 minutes. For preparation of whole-cell lysates, cell pellets were washed once in ice-cold PBS and resuspended in RIPA lysis buffer [50 mM Tris pH 7.4, 150 mM NaCl, 0.25% Sodium Deoxycholate, 1% NP40, 1 mM EDTA, 10% Glycerol] supplemented with complete protease inhibitor and PhosSTOP™ phosphatase inhibitor cocktails (Roche). Cells were lysed on ice for 15 minutes and immediately frozen at −80° C. for 10 min. Lysates were subsequently sonicated at 70% amplitude for 15 minutes in a QSonica Q800R™ and cleared of cell debris by centrifuging at 12,000 RPM for 15 minutes, before being analyzed by western blotting. For HIF1α expression, adherent cells were washed twice with ice-cold PBS and scraped directly in warmed 1× Laemmli buffer. Samples were sonicated at 70% amplitude for 15 minutes and boiled immediately prior to western blotting.

HEK 293T cells [1] = assay: Monitored cell proliferation assay (xCELLigence growth curves, doubling time); format: cell-based, human
Procedure: Seventy two hours post transfection 1×10^4 HEK 293T cells were seeded per well of a 96 well plate, and then treated after 24h. Cell proliferation was monitored with an xCELLigence system (Roche) (Vistejnova et al., 2009).

translation initiation = assay: Polysome profiles; format: cell-based, human; settings: 293T cells
RPE cells = assay: Flow cytometry cell cycle analysis; format: cell-based, human; settings: normoxia and hypoxia
Procedure: Asynchronously growing, or G1/S arrested cells were prepared and fixed as in (Black et al., 2010). Cells were stained with 10 μM EdU for 1 hour prior to collection. Cell cycle was analyzed by PI staining or EdU incorporation using Click-IT EdU™ Flow Cytometry Assay Kit (Life Technologies). Flow cytometry of CD4+ T cells and cell cycle distribution were analyzed using a BD FACS ARIA II™.

[2] = test system: 1q12h copy gain in RPE cells; assay: FISH for site-specific copy gain; format: cell-based, human; settings: RPE cells; 1% O2 24 hours; JIB-04 62.5 nM or 2 mM succinate pre-treatment, or overexpression
Procedure: FISH was performed as described in (Manning et al., 2010). Probes for 1q12h, 1q telomere, and chromosome 2, 6, 8, and X alpha satellite were purchased from Rainbow Scientific. Probes for 1q12 (RP11-80L2), Xq13.2 (RP11-451A22), Xq13.1 (RP11-177A4) were purchased as BAC clones from Children's Hospital Oakland Research Institute (CHORI BacPac) FISH verified clone repository. Oligonucleotide probes for 1q21.2 (BCL9) and 1q23.3 were purchased from Agilent (SureFISH). BACS were prepared utilizing PureLink HiPure Plasmid Filter Maxiprep kit (Life Technologies) using the recommended modified wash buffer. Probes were nick translated (Abbot Molecular Kit) in the presence of fluorescently labeled dTTP (Enzo Life Science). Images of multiple planes of fields of nuclei were acquired on an Olympus IX81 Spinning Disk Microscope and analyzed using Slidebook 5.0 software. We used a conservative scoring metric for copy gain. Any foci that were touching were scored as a single foci to prevent increased numbers due to normally replicated foci. For RPE cells, copy gain was scored as any cell with 3 or more distinct foci. For 293T cells, copy gain was scored for any cell with 5 or more distinct foci. For RPE cells each experiment includes at least one replicate from the two different polyclonal stable cell preparations. At least 100 cells for each replicate were scored for all experiments except analysis of single cell clones.
Cells were plated onto culture dishes and allowed to adhere for 20-24 hrs in normoxia (5% CO2, 21% O2, and 74% N2). For hypoxic treatment, cells were maintained in a HERA Cell 150™ incubator (Thermo Scientific) flushed with 5% CO2, 1% O2 or 4% O2, and balanced with N2 for the duration of the experiment. Incubator calibrations were carried out by Bianchi Associates Calibrations/Verifications.
To release, cells were washed twice with culture medium pre-conditioned in normoxia or hypoxia, and supplied with fresh pre-conditioned media. For JIB-04 treatment, normoxic cells were pre-treated with 62.5 nM JIB-04 (Xcessbio) for 24 hrs, then treated again with JIB-04 and either transferred to 1% O2 or maintained in normoxia for an additional 24 hrs. Succinate was administered at a final concentration of 2 mM and cells were either maintained in normoxia for 72 hrs or maintained in normoxia for 48 hrs prior to being transferred to 1% O2 for 24 hrs.
FISH was performed as described in (Black et al., 2013; Manning et al., 2010). Probes for 1q12h, 1q telomere, chromosome 8 centromere (alpha satellite), and X centromere (alpha satellite) were purchased from Rainbow Scientific. Probes for Xq13.1 (RP11-177A4), Zebrafish BCL9 (CH73-15J19) and Zebrafish IGBP1 (CH73-223D24) were purchased as BAC clones from Children's Hospital Oakland Research Institute (CHORI BacPac) clone repository. Probes for 1q21.2 (BCL9) and 1q23.3 were purchased from Agilent (SureFISH).
FISH was performed as described in (Black et al., 2013; Manning et al., 2010). Probes for 1q12h, 1q telomere, chromosome 8 centromere (alpha satellite), and X centromere (alpha satellite) were purchased from Rainbow Scientific. Probes for Xq13.1 (RP11-177A4), Zebrafish BCL9 (CH73-15J19) and Zebrafish IGBP1 (CH73-223D24) were purchased as BAC clones from Children's Hospital Oakland Research Institute (CHORI BacPac) clone repository. Probes for 1q21.2 (BCL9) and 1q23.3 were purchased from Agilent (SureFISH). BACS were prepared utilizing PureLink HiPure™ Plasmid Filter Maxiprep kit (Life Technologies) using the recommended modified wash buffer. Probes were nick translated (Abbot Molecular Kit) in the presence of fluorescently labeled dTTP (Enzo Life Science). Images of multiple planes of fields of nuclei were acquired on an Olympus IX81 T Spinning Disk Microscope and analyzed using Slidebook™ 5.0 software. A conservative scoring metric was used for copy gain. Any foci that were touching were scored as a single copy to prevent increased numbers due to normally replicated foci.

HEK 293T cells [3] = assay: MTT proliferation and viability assay; format: cell-based, human; settings: JIB-04 vs vehicle, 48h
Procedure: For tissue culture and generation of stable cell lines see (Black et al., 2010). Rapamycin (LC Laboratories) and AZD8055 (Selleckchem) were used at indicated concentrations. […] JIB-04 (Xcessbio) was used at a final concentration of 250 nM. For the translation assays, DMEM depleted of Methionine and Cysteine (Life Technologies 21013-024) was used.
MTT assays were performed following supplier's instructions from the Cell Proliferation Kit I™ (MTT) from Roche. Briefly, 1×10^4 cells were seeded per well of a 96 well plate and grown for 24h before treatment. Forty-eight hours later, cells were assayed.

overall translation = assay: Translation assay (AHA incorporation, Click-IT); format: cell-based, human; settings: HEK 293T; 24h; 250 nM JIB-04 and 0.1 ng/ml Rapamycin
Procedure: Translation assays were performed following supplier's instructions from Click-IT™ Metabolic Labeling Reagents for Proteins (Life Technologies). Cells were incubated in presence of DMEM without Cysteine and Methionine for 1 h, then grown in presence of 50 μM AHA (L-azidohomoalanine, Life Technologies C10102) for 2h, harvested and washed extensively with PBS. Cells were lysed in 1% SDS in 50 mM Tris pH8 with 10% Glycerol and sonicated using a bath sonicator (QSonica™ Q800R) for 30 min. The Click-IT reactions were performed following the supplier's instructions from Click-IT™ Protein Reaction Buffer Kit (Life Technologies). Briefly, 50 μg to 100 μg of lysates were used per reaction with 40 μM Alkyne-Biotin (Life Technologies B10185), and 10 μg were assayed by western blot using a Streptavidin antibody conjugated to HRP.

H3K36me3 = assay: H3K36 demethylase activity of KDM4A variants in transfected cells (immunofluorescence); format: cell-based; settings: U2OS cells transfected with GFP-KDM4A

Molecule	KDM4A protein levels in hypoxia (KDM4A)	cell sensitivity to Rapamycin (doubling time between 5 h and 35 h) (HEK 293T cells [1]; HEK293T, 250 nM JIB-04 and 1 ng/ml of Rapamycin)	cell sensitivity to AZD8055 (doubling time between 5 h and 35 h) (HEK 293T cells [1]; HEK293T, 250 nM JIB-04 and 50 nM of AZD8055)	polysome profile, JIB-04 with Rapamycin (translation initiation; JIB-04 250 nM and Rapamycin 0.1 ng/ml)	polysome profile, JIB-04 alone (translation initiation; JIB-04 250 and 500 nM)	cell cycle profile (RPE cells)	hypoxia-dependent copy gain of 1q12h [2]	sensitivity to Rapamycin and AZD8055 upon JIB-04 co-treatment (HEK 293T cells [3])	overall translation with JIB-04 and Rapamycin (overall translation)	rescue of increased sensitivity to AZD8055 due to KDM4A depletion (doubling time 5h-35h) (HEK 293T cells [1]; shRNA KDM4A plus non targetable GFP-KDM4A constructs)	rescue of increased sensitivity to Rapamycin of KDM4A depleted cells (doubling time 5h-35h) (HEK 293T cells [1]; shRNA KDM4A plus shRNA-resistant GFP-KDM4A constructs)	H3K36me3 and H3K9me3 catalytic activities (H3K36me3)
Clc1ccc(N/N=C(\c2ccccc2)c2ccccn2)nc1 [JIB-04]	did not substantially alter KDM4A protein levels in hypoxia	increases cell sensitivity to Rapamycin	increases cell sensitivity to AZD8055	can sensitize cells to Rapamycin by increasing their translation initiation defect	leads to a translation initiation defect	did not result in significant differences in cell cycle between normoxic and hypoxic cells	did significantly reduce hypoxia-dependent copy gain of 1q12h	enhanced the effect of both Rapamycin and AZD8055; also recorded: more sensitive to Rapamycin and AZD8055 than cells treated with vehicle	enhanced the alteration of translation observed after Rapamycin treatment	–	–	–
B1	–	–	–	–	–	–	–	–	–	does not	does not	did not appear to be altered
